Results on three compounds are retold here after ChEMBL document CHEMBL3627608, “Crystal structures of human RIP2 kinase catalytic domain complexed with ATP-competitive inhibitors: Foundations for understanding inhibitor selectivity” (Bioorg Med Chem, 2015).

The target of assay [1] is Leucine-rich repeat serine/threonine-protein kinase 2 (Homo sapiens) (UniProt Q5S007). In words: Inhibition of LRRK2 (unknown origin) at 10 uM after 120 mins P33 radiolabeled kinase activity assay.
For assay [2], the target named is T1, Serine/threonine-protein kinase haspin (Homo sapiens) (UniProt Q8TF76).
T1 sequence (whole entry): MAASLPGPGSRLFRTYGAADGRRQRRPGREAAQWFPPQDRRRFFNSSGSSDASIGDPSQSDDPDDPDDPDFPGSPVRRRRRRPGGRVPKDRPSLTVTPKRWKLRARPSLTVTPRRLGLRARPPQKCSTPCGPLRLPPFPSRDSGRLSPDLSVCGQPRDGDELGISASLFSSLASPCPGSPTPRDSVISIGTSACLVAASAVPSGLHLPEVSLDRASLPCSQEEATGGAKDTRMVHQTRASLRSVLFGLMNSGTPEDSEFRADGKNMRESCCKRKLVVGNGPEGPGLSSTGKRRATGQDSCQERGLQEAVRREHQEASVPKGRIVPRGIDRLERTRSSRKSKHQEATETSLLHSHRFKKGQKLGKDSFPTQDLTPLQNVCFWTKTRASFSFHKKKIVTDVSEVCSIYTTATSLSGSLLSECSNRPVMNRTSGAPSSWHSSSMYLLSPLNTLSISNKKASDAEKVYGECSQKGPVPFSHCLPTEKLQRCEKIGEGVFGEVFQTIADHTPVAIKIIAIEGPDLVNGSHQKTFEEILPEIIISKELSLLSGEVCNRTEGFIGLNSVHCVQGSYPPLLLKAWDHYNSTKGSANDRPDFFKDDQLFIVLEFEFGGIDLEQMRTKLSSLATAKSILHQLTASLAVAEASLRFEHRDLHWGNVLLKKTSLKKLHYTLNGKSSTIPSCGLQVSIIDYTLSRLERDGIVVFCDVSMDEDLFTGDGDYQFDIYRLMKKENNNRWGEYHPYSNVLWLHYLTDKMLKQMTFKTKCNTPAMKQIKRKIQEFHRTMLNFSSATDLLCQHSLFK
Nature of the assay: Inhibition of Haspin (unknown origin) at 10 uM after 120 mins P33 radiolabeled kinase activity assay.

The target in assay [3] is Ribosomal protein S6 kinase alpha-1 (Homo sapiens) (UniProt Q15418). Nature of the assay: Inhibition of RSK1 (unknown origin) at 10 uM after 120 mins P33 radiolabeled kinase activity assay.
In assay [4] the target is Serine/threonine-protein kinase PAK 5 (Homo sapiens) (UniProt Q9P286). In words: Inhibition of PAK5 (unknown origin) at 10 uM after 120 mins P33 radiolabeled kinase activity assay.
The target in assay [5] is Homeodomain-interacting protein kinase 1 (Homo sapiens) (UniProt Q86Z02). Nature of the assay: Inhibition of HIPK1 (unknown origin) at 10 uM after 120 mins P33 radiolabeled kinase activity assay.
Assay [6] has as its target Calcium/calmodulin-dependent protein kinase type II subunit gamma (Homo sapiens) (UniProt Q13555). Nature of the assay: Inhibition of CAMK2gamma (unknown origin) at 10 uM after 120 mins P33 radiolabeled kinase activity assay.
For assay [7], the target named is T2, Serine/threonine-protein kinase 17A (Homo sapiens) (UniProt Q9UEE5).
T2 sequence (whole entry): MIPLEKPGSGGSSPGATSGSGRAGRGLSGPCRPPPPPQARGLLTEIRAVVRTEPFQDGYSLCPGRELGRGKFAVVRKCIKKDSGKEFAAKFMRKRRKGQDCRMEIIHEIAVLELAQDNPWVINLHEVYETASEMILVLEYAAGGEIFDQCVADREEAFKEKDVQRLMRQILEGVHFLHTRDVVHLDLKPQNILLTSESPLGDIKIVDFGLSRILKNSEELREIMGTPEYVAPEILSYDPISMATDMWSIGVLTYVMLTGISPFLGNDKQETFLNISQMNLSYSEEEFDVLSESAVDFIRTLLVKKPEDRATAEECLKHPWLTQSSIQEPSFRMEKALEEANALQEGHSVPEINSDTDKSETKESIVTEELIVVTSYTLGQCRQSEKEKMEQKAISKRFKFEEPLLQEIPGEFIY
Nature of the assay: Inhibition of DRAK1 (unknown origin) at 10 uM after 120 mins P33 radiolabeled kinase activity assay.

Assay [8] concerns the target T3, 3-phosphoinositide-dependent protein kinase 1 (Homo sapiens) (UniProt O15530).
T3 sequence (whole entry): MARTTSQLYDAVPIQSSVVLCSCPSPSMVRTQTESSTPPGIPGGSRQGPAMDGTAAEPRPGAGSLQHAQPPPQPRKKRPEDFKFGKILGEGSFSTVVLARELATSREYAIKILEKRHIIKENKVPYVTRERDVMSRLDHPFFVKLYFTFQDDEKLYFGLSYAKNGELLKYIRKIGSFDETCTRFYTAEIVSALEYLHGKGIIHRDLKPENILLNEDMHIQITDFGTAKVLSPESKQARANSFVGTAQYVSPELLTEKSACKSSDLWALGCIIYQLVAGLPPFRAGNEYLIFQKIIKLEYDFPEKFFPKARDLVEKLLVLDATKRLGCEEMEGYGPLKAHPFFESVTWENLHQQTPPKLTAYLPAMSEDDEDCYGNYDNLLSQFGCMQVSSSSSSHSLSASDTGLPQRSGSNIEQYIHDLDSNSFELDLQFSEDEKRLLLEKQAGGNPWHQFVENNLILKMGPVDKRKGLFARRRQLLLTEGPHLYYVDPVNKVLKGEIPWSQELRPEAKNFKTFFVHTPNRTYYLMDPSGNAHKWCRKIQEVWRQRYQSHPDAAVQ
In words: Inhibition of PDK1 (unknown origin) at 10 uM after 120 mins P33 radiolabeled kinase activity assay.

For assay [9], the target named is Tyrosine-protein kinase receptor UFO (Homo sapiens) (UniProt P30530). In words: Inhibition of AXL (unknown origin) at 10 uM after 120 mins P33 radiolabeled kinase activity assay.
Assay [10] addresses Ephrin type-A receptor 4 (Homo sapiens) (UniProt P54764). In words: Inhibition of EPHA4 (unknown origin) at 10 uM after 120 mins P33 radiolabeled kinase activity assay.
The species entered for assay [11] is Homo sapiens. Nature of the assay: Inhibition of PKG1beta (unknown origin) at 10 uM after 120 mins P33 radiolabeled kinase activity assay.
The target in assay [12] is Angiopoietin-1 receptor (Homo sapiens) (UniProt Q02763). Nature of the assay: Inhibition of TIE2 (unknown origin) at 10 uM after 120 mins P33 radiolabeled kinase activity assay.
The target in assay [13] is Fibroblast growth factor receptor 3 (Homo sapiens) (UniProt P22607). In words: Inhibition of FGFR3 (unknown origin) at 10 uM after 120 mins P33 radiolabeled kinase activity assay.
Fibroblast growth factor receptor 3 (Homo sapiens), sequence (P22607 23-806 limits assumed): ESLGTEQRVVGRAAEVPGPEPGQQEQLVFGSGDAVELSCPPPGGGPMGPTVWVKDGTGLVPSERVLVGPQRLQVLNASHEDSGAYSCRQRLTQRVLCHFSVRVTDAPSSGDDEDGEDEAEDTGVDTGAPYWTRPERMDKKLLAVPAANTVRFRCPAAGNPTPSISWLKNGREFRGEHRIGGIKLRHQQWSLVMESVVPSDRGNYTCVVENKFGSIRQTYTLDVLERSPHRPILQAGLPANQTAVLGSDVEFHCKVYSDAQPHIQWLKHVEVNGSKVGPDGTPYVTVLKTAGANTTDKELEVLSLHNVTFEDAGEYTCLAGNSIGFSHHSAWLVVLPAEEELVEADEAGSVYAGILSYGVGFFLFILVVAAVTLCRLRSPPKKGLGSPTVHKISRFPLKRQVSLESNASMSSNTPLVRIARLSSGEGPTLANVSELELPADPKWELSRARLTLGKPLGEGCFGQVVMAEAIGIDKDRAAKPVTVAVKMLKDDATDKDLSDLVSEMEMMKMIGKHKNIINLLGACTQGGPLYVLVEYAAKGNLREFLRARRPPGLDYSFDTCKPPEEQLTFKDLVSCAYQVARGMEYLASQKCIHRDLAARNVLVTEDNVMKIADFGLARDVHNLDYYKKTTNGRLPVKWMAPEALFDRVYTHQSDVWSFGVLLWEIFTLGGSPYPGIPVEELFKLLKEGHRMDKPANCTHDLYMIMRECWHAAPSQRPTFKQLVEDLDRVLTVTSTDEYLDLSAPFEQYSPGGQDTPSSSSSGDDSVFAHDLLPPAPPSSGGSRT

Serine/threonine-protein kinase PAK 5 (Homo sapiens), sequence (Q9P286 whole entry, looked up): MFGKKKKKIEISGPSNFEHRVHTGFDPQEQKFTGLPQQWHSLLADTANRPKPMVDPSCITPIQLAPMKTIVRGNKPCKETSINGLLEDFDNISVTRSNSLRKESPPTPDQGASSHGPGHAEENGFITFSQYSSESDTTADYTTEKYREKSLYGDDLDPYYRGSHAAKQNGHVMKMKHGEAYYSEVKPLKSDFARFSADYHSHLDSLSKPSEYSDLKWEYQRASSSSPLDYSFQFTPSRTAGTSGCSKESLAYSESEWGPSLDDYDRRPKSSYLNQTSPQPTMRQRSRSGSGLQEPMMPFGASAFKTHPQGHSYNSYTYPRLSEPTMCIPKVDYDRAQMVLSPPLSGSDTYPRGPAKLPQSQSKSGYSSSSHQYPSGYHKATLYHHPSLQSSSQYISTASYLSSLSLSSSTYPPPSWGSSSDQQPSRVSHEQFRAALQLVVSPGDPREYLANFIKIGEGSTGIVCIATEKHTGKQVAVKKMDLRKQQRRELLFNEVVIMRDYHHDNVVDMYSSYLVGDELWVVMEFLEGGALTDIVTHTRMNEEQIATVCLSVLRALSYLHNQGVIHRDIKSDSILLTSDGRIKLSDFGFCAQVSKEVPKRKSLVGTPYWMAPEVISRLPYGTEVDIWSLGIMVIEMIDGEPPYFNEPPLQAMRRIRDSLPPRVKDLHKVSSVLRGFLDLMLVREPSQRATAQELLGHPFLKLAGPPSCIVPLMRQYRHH
Angiopoietin-1 receptor (Homo sapiens), sequence (Q02763 whole entry): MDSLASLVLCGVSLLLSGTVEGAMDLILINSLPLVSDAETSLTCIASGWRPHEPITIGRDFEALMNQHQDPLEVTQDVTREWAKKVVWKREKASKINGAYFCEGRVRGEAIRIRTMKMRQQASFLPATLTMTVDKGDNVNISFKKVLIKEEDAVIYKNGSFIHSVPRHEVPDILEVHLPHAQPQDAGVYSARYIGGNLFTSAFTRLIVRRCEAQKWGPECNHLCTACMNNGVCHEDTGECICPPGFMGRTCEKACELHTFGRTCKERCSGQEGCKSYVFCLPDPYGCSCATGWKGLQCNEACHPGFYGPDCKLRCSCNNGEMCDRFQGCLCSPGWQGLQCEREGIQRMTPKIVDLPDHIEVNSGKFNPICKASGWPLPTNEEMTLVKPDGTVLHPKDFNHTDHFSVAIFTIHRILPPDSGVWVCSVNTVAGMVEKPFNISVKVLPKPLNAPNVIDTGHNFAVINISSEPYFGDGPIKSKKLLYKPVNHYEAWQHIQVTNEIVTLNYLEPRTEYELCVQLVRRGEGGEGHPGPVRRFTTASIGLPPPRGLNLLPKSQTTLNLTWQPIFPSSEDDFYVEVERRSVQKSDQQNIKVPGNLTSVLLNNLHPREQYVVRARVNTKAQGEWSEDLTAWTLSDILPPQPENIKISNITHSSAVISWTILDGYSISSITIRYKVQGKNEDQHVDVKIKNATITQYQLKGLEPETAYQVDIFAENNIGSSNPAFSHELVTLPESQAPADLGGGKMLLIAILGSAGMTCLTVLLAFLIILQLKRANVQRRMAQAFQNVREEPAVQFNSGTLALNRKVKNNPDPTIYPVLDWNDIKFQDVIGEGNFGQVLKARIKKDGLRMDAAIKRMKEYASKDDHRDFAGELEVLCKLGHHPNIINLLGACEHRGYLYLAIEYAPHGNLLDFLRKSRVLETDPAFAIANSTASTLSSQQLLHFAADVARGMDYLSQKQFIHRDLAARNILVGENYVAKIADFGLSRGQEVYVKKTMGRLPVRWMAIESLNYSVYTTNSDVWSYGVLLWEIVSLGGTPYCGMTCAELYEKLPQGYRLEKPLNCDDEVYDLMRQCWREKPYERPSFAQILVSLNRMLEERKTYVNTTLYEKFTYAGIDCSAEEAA
Ephrin type-A receptor 4 (Homo sapiens), sequence (P54764 whole entry): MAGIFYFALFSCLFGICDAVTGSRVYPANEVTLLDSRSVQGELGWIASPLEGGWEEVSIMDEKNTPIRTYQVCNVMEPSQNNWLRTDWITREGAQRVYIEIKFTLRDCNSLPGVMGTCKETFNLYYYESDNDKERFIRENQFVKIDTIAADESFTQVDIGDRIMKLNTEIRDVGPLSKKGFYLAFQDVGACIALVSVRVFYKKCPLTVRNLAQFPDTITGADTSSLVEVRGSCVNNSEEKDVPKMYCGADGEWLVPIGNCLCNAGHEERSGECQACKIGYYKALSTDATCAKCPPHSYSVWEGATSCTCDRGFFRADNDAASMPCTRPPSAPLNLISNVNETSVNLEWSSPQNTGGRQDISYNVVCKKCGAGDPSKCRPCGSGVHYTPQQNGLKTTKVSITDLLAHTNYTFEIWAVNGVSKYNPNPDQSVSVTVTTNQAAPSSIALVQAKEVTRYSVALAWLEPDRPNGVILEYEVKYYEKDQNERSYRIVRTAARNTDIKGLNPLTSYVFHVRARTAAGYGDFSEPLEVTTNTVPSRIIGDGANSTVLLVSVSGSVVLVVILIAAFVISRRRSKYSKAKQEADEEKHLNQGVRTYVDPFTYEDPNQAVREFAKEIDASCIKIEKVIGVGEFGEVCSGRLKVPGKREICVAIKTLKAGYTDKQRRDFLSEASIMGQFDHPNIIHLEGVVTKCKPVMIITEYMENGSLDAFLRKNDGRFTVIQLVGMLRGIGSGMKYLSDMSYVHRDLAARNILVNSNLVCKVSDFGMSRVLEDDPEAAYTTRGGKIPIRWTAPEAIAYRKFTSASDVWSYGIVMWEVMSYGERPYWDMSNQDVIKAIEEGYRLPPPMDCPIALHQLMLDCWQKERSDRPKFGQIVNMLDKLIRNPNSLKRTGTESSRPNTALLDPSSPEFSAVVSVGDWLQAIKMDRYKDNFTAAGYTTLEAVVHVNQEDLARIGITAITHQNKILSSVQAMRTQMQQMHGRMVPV
Calcium/calmodulin-dependent protein kinase type II subunit gamma (Homo sapiens), sequence (Q13555 whole entry): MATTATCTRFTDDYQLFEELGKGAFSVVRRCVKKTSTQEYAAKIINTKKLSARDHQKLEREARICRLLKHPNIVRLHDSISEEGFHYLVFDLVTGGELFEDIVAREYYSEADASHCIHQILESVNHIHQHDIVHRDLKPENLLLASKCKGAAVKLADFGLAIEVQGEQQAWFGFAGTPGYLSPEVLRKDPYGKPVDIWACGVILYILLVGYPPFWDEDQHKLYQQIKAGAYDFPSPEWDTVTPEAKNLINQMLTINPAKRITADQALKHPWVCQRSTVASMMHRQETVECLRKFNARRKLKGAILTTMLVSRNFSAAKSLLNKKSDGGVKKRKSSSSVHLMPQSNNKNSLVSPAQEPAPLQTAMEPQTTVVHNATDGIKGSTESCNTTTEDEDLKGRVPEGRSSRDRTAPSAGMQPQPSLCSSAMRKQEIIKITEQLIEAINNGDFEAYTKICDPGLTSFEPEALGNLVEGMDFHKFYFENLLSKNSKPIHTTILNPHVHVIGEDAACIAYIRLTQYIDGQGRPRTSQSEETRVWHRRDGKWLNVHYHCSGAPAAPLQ
Tyrosine-protein kinase receptor UFO (Homo sapiens), sequence (P30530 whole entry): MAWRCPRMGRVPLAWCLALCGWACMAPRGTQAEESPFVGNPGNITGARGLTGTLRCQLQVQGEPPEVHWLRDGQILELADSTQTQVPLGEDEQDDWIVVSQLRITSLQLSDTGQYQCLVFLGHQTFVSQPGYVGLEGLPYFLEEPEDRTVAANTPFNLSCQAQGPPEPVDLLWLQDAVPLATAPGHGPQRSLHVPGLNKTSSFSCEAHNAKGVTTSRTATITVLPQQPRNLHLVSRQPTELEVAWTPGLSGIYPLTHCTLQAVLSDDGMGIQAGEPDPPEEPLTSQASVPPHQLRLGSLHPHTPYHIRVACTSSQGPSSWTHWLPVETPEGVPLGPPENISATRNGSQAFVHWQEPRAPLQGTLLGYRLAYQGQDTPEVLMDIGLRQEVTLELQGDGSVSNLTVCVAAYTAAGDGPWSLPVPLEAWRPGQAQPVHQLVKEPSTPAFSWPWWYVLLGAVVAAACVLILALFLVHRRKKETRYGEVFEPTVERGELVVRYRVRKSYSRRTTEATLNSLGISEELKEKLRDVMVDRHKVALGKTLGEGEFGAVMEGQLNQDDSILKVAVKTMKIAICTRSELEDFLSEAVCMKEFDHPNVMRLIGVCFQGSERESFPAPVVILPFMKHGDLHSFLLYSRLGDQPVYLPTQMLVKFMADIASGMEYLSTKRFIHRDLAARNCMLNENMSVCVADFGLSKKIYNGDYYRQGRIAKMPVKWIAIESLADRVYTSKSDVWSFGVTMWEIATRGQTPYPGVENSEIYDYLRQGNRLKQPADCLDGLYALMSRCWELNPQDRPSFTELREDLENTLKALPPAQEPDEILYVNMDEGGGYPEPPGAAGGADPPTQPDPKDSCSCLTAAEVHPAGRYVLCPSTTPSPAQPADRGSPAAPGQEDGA

`CS(=O)(=O)c1cccc(Nc2nccc(-c3sc(N4CCOCC4)nc3-c3cccc(NS(=O)(=O)c4c(F)cccc4F)c3)n2)c1`: the inhibition is 63.4% in assay [1]; 12.1% in assay [2]; 73% in assay [3]; 17.8% in assay [4]; 81.1% in assay [5]; 7.84% in assay [6]. For the same compound, the inhibition in assay [7] worked out at 1.47%; in [8], 7.26%; in [9], 82.1%; in assay [10], 70.5%; in assay [11], 2.75%; in assay [12], 97%. Besides, in [13], the inhibition came out at 51.2%.
For the compound `CC(C)(C)c1cc(NC(=O)Nc2ccc(Oc3ccncc3)cc2)no1`, the inhibition was 81.5% in assay [1]; 12.3% in [2]; 52% in assay [3]; 14.3% in [4]; 8.52% in assay [5]; 3.21% in [6]. Also, the inhibition in [7] turned out to be 8.49%; in assay [8], 8.32%; in assay [9], 86.6%; in assay [10], 97%; in assay [11], 15.2%; in assay [12] it was 69.2%. Also, the inhibition in [13] stood at 72.3%.
On to `COCCNC(=O)c1ccc2c(c1)nc(-c1cnc(-c3ccc(Cl)cc3)[nH]1)n2CCOC`, for which the inhibition is 17.1% in assay [1]; 11.4% in assay [2]; 11.6% in assay [3]; 14.8% in assay [4]; -8.42% in [5]; 9.22% in assay [6]. Moreover, the inhibition is 5.43% in [7]; 4.43% in [8]; 7.68% in assay [9]; 14.3% in assay [10]; -4.49% in assay [11]; 4.75% in [12]. Moreover, the inhibition in [13] was 8.78%.

As usually defined, the inhibition is the change of the read-out against control, counted positive when it falls.
